{
  "source": "paper PMC5218480",
  "about": "(PLoS ONE, 2017)",
  "tested_on": "MV-4-11 cells",
  "experiment": "Gene expression microarray analysis (Affymetrix PrimeView) and GSEA",
  "assay_type": "cell-based, human",
  "design": "RFU PODN (11730768_x_at) / Fold change /veh PODN (11730768_x_at) / RFU LINC00158 (11744669_a_at) / Fold change /veh LINC00158 (11744669_a_at) / RFU DUSP10 (11751237_a_at) / Fold change /veh DUSP10 (11751237_a_at) / RFU ID3 (11757404_x_at) / Fold change /veh ID3 (11757404_x_at) / RFU PLEKHG5 (11737974_s_at) / Fold change /veh PLEKHG5 (11737974_s_at) / RFU LRRC4B (11730491_at) / Fold change /veh LRRC4B (11730491_at) / RFU GIMAP4 (11747438_a_at) / Fold change /veh GIMAP4 (11747438_a_at) / RFU KRT8 (11758183_x_at) / Fold change /veh KRT8 (11758183_x_at) / RFU CNN1 (11734310_a_at) / Fold change /veh CNN1 (11734310_a_at) / RFU VPS37D (11726825_at) / Fold change /veh VPS37D (11726825_at) / RFU C10orf10 (11716522_x_at) / Fold change /veh C10orf10 (11716522_x_at) / RFU KIR2DL2 /// KIR2DL4 /// KIR2DL5A /// KIR2DL5B /// KIR2DS1 /// KIR2DS2 /// KIR2DS3 /// KIR2DS4 /// KIR3DL3 /// KIR3DL3 /// KIR3DS1 (11738374_at) / Fold change /veh KIR2DL2 /// KIR2DL4 /// KIR2DL5A /// KIR2DL5B /// KIR2DS1 /// KIR2DS2 /// KIR2DS3 /// KIR2DS4 /// KIR3DL3 /// KIR3DL3 /// KIR3DS1 (11738374_at) / RFU C1QL1 (11718748_at) / Fold change /veh C1QL1 (11718748_at) / RFU TMPRSS4 (11747572_a_at) / Fold change /veh TMPRSS4 (11747572_a_at) / RFU HAMP (11756126_x_at) / Fold change /veh HAMP (11756126_x_at) / RFU RNFT2 (11725882_a_at) / Fold change /veh RNFT2 (11725882_a_at) / RFU NR4A2 (11747474_a_at) / Fold change /veh NR4A2 (11747474_a_at) / RFU ABCC12 (11746883_a_at) / Fold change /veh ABCC12 (11746883_a_at) / RFU TMEM136 (11760407_x_at) / Fold change /veh TMEM136 (11760407_x_at) / RFU CLDN22 /// WWC2 (11732394_at) / Fold change /veh CLDN22 /// WWC2 (11732394_at) / RFU HLA-DPB1 (11760878_x_at) / Fold change /veh HLA-DPB1 (11760878_x_at) / RFU SPINT1 (11716480_a_at) / Fold change /veh SPINT1 (11716480_a_at) / RFU GAP43 (11754022_s_at) / Fold change /veh GAP43 (11754022_s_at) / RFU A4GNT (11735810_at) / Fold change /veh A4GNT (11735810_at) / RFU PRB3 (11715151_x_at) / Fold change /veh PRB3 (11715151_x_at) / RFU TUBB4B (11761932_at) / Fold change /veh TUBB4B (11761932_at) / RFU CAPN14 (11732068_a_at) / Fold change /veh CAPN14 (11732068_a_at) / RFU TMCC2 (11721928_a_at) / Fold change /veh TMCC2 (11721928_a_at) / RFU IRGQ (11745062_a_at) / Fold change /veh IRGQ (11745062_a_at) / RFU FAM174B (11720279_a_at) / Fold change /veh FAM174B (11720279_a_at) / RFU TMPRSS4 (11748680_a_at) / Fold change /veh TMPRSS4 (11748680_a_at) / RFU FAM212B (11763350_a_at) / Fold change /veh FAM212B (11763350_a_at) / RFU PLEKHG5 (11743358_a_at) / Fold change /veh PLEKHG5 (11743358_a_at) / RFU ZSCAN30 (11745921_a_at) / Fold change /veh ZSCAN30 (11745921_a_at) / RFU CMKLR1 (11741424_a_at) / Fold change /veh CMKLR1 (11741424_a_at) / RFU LOC101060620 /// MAPK8IP1 (11723275_at) / Fold change /veh LOC101060620 /// MAPK8IP1 (11723275_at) / RFU SPTSSB (11747773_x_at) / Fold change /veh SPTSSB (11747773_x_at) / RFU PRSS12 (11739890_at) / Fold change /veh PRSS12 (11739890_at) / RFU BIN1 (11741810_x_at) / Fold change /veh BIN1 (11741810_x_at) / RFU WNT11 (11732464_a_at) / Fold change /veh WNT11 (11732464_a_at) / RFU C10orf10 (11716521_a_at) / Fold change /veh C10orf10 (11716521_a_at) / RFU C5orf56 (11738089_at) / Fold change /veh C5orf56 (11738089_at) / RFU CYB561 (11721691_x_at) / Fold change /veh CYB561 (11721691_x_at) / RFU ANKRD19P (11752326_a_at) / Fold change /veh ANKRD19P (11752326_a_at) / RFU OR2T12 /// OR2T33 /// OR2T8 (11738714_s_at) / Fold change /veh OR2T12 /// OR2T33 /// OR2T8 (11738714_s_at) / RFU VCAN (11748164_a_at) / Fold change /veh VCAN (11748164_a_at) / RFU JSRP1 (11732532_at) / Fold change /veh JSRP1 (11732532_at) / RFU KRTAP10-11 (11738290_x_at) / Fold change /veh KRTAP10-11 (11738290_x_at) / RFU MYO3A (11730013_a_at) / Fold change /veh MYO3A (11730013_a_at) / RFU EBF3 (11725865_a_at) / Fold change /veh EBF3 (11725865_a_at) / RFU CAMK2N1 (11719241_x_at) / Fold change /veh CAMK2N1 (11719241_x_at) / RFU C5orf56 (11738088_a_at) / Fold change /veh C5orf56 (11738088_a_at) / RFU OLFML3 (11715873_a_at) / Fold change /veh OLFML3 (11715873_a_at) / RFU LOC100653217 /// NTM (11731650_a_at) / Fold change /veh LOC100653217 /// NTM (11731650_a_at) / RFU MAPK11 (11762145_a_at) / Fold change /veh MAPK11 (11762145_a_at) / RFU FIZ1 (11724087_x_at) / Fold change /veh FIZ1 (11724087_x_at) / RFU OASL (11726364_x_at) / Fold change /veh OASL (11726364_x_at) / RFU SOX15 (11748057_x_at) / Fold change /veh SOX15 (11748057_x_at) / RFU CD79A (11719716_a_at) / Fold change /veh CD79A (11719716_a_at) / RFU HIST1H1D (11736915_at) / Fold change /veh HIST1H1D (11736915_at) / RFU CASKIN2 (11723855_a_at) / Fold change /veh CASKIN2 (11723855_a_at) / RFU LOC730098 (11760151_x_at) / Fold change /veh LOC730098 (11760151_x_at) / RFU OR4N2 (11742367_at) / Fold change /veh OR4N2 (11742367_at) / RFU PRRT2 (11749266_a_at) / Fold change /veh PRRT2 (11749266_a_at) / RFU SNX32 (11753110_a_at) / Fold change /veh SNX32 (11753110_a_at) / RFU CDHR5 (11726645_a_at) / Fold change /veh CDHR5 (11726645_a_at) / RFU RCAN1 (11760418_a_at) / Fold change /veh RCAN1 (11760418_a_at) / RFU FAM167A (11723789_a_at) / Fold change /veh FAM167A (11723789_a_at) / RFU FAM26E (11764081_at) / Fold change /veh FAM26E (11764081_at) / RFU ISYNA1 (11749810_s_at) / Fold change /veh ISYNA1 (11749810_s_at) / RFU ACY1 (11761880_at) / Fold change /veh ACY1 (11761880_at) / RFU 11764098_at / Fold change /veh 11764098_at / RFU SAMD14 (11745864_x_at) / Fold change /veh SAMD14 (11745864_x_at) / RFU NPB (11741838_a_at) / Fold change /veh NPB (11741838_a_at) / RFU TMPRSS6 (11731388_a_at) / Fold change /veh TMPRSS6 (11731388_a_at) / RFU KRTAP10-2 (11738614_at) / Fold change /veh KRTAP10-2 (11738614_at) / RFU ARHGAP8 /// PRR5-ARHGAP8 (11727945_x_at) / Fold change /veh ARHGAP8 /// PRR5-ARHGAP8 (11727945_x_at) / RFU KRTAP5-7 /// NADSYN1 (11734609_at) / Fold change /veh KRTAP5-7 /// NADSYN1 (11734609_at) / RFU RASL12 (11751679_a_at) / Fold change /veh RASL12 (11751679_a_at) / RFU CDKN2B (11736163_a_at) / Fold change /veh CDKN2B (11736163_a_at) / RFU PRF1 (11729649_at) / Fold change /veh PRF1 (11729649_at) / RFU, ZNF638 /// ZNF638-IT1 / Fold change vs veh, ZNF638 /// ZNF638-IT1 / RFU, PANK3 / Fold change vs veh, PANK3 / RFU, SH3YL1 / Fold change vs veh, SH3YL1 / RFU, ZEB2 / Fold change vs veh, ZEB2 / RFU, NRIP1 / Fold change vs veh, NRIP1 / RFU, PTTG1IP / Fold change vs veh, PTTG1IP / RFU, CAPN2 / Fold change vs veh, CAPN2 / RFU, MED14 / Fold change vs veh, MED14 / RFU, SNORA58 / Fold change vs veh, SNORA58 / RFU, C1orf63 / Fold change vs veh, C1orf63 / RFU, LRRFIP1 / Fold change vs veh, LRRFIP1 / RFU, NDUFAF7 / Fold change vs veh, NDUFAF7 / RFU, SLC12A2 / Fold change vs veh, SLC12A2 / RFU, IBTK / Fold change vs veh, IBTK / RFU, ESF1 / Fold change vs veh, ESF1 / Fold change vs veh, TMEM50B / RFU, TAOK1 / Fold change vs veh, TAOK1 / RFU, ACBD3 / Fold change vs veh, ACBD3 / RFU, TMA16 / Fold change vs veh, TMA16 / RFU, RWDD3 / Fold change vs veh, RWDD3 / RFU, BCAT1 / Fold change vs veh, BCAT1 / RFU, EDEM3 / Fold change vs veh, EDEM3 / RFU, TMEM33 / Fold change vs veh, TMEM33 / RFU, WDR75 / Fold change vs veh, WDR75 / RFU, AHCTF1 / Fold change vs veh, AHCTF1 / RFU, TFRC / Fold change vs veh, TFRC / RFU, ZDHHC17 / Fold change vs veh, ZDHHC17 / RFU, NOM1 / Fold change vs veh, NOM1 / RFU, ARL8B / Fold change vs veh, ARL8B / RFU, ZBTB11 / Fold change vs veh, ZBTB11 / RFU, TAMM41 / Fold change vs veh, TAMM41 / RFU, KIAA1704 /// LOC100996395 / Fold change vs veh, KIAA1704 /// LOC100996395 / RFU, ING1 / Fold change vs veh, ING1 / RFU, TRMT61B / Fold change vs veh, TRMT61B / RFU, FUBP3 / Fold change vs veh, FUBP3 / RFU, TP53 / Fold change vs veh, TP53 / RFU, TNKS2 / Fold change vs veh, TNKS2 / RFU, ZFP14 / Fold change vs veh, ZFP14 / RFU, ACTR2 / Fold change vs veh, ACTR2 / RFU, PPP3R1 / Fold change vs veh, PPP3R1 / RFU, PIK3R1 / Fold change vs veh, PIK3R1 / RFU, HNRNPA1 / Fold change vs veh, HNRNPA1 / RFU, RNF170 / Fold change vs veh, RNF170 / RFU, ZNF28 / Fold change vs veh, ZNF28 / RFU, RNGTT / Fold change vs veh, RNGTT / RFU, OGT / Fold change vs veh, OGT / RFU, BRD1 / Fold change vs veh, BRD1 / RFU, MARS / Fold change vs veh, MARS / RFU, ZNF655 / Fold change vs veh, ZNF655 / RFU, FAHD1 / Fold change vs veh, FAHD1 / RFU, BDP1 / Fold change vs veh, BDP1 / RFU, LRRCC1 / Fold change vs veh, LRRCC1 / RFU, ARID1A / Fold change vs veh, ARID1A / RFU, ZNF146 / Fold change vs veh, ZNF146 / RFU, ZNF330 / Fold change vs veh, ZNF330 / RFU, GPN3 / Fold change vs veh, GPN3 / RFU, C9orf123 / Fold change vs veh, C9orf123 / RFU, N4BP2L2 / Fold change vs veh, N4BP2L2 / RFU, ARFIP1 / Fold change vs veh, ARFIP1 / RFU, FAM179B / Fold change vs veh, FAM179B / RFU, BCL10 / Fold change vs veh, BCL10 / RFU, UHRF1BP1L / Fold change vs veh, UHRF1BP1L / RFU, BET1 / Fold change vs veh, BET1 / RFU, CNOT2 / Fold change vs veh, CNOT2 / RFU, ZNF268 / Fold change vs veh, ZNF268 / Fold change vs veh, ZNF507 / RFU, DGCR2 / Fold change vs veh, DGCR2 / RFU, WDSUB1 / Fold change vs veh, WDSUB1 / Fold change vs veh, HSP90B1 /// MIR3652 / RFU, ADSS / Fold change vs veh, ADSS / RFU, GK / Fold change vs veh, GK / RFU, ZNF148 / Fold change vs veh, ZNF148 / RFU, TAF9 / Fold change vs veh, TAF9 / RFU, SLC1A5 / Fold change vs veh, SLC1A5 / RFU, SLMO2 / Fold change vs veh, SLMO2 / RFU, ABCC4 / Fold change vs veh, ABCC4 / RFU, LOC101060439 /// RAP1B / Fold change vs veh, LOC101060439 /// RAP1B / RFU, RFX7 / Fold change vs veh, RFX7 / RFU, GTPBP10 / Fold change vs veh, GTPBP10 / RFU, CNEP1R1 / Fold change vs veh, CNEP1R1 / RFU, BIVM-ERCC5 /// ERCC5 / Fold change vs veh, BIVM-ERCC5 /// ERCC5 / RFU, ILF3 / Fold change vs veh, ILF3 / RFU 11762660_at / Fold change /veh 11762660_at / RFU VCAN (11757783_s_at) / Fold change /veh VCAN (11757783_s_at) / RFU DDX43 (11728927_at) / Fold change /veh DDX43 (11728927_at) / RFU KRT8 (11758188_x_at) / Fold change /veh KRT8 (11758188_x_at) / RFU NKD1 (11759106_at) / Fold change /veh NKD1 (11759106_at) / RFU SRD5A1 (11742802_a_at) / Fold change /veh SRD5A1 (11742802_a_at) / RFU TPSAB1 /// TPSB2 (11721975_s_at) / Fold change /veh TPSAB1 /// TPSB2 (11721975_s_at) / RFU GSTM3 (11746129_a_at) / Fold change /veh GSTM3 (11746129_a_at) / RFU IL23R (11737362_x_at) / Fold change /veh IL23R (11737362_x_at) / RFU TMEM51 (11727254_a_at) / Fold change /veh TMEM51 (11727254_a_at) / RFU PIWIL2 (11732686_x_at) / Fold change /veh PIWIL2 (11732686_x_at) / RFU ORM1 (11744905_x_at) / Fold change /veh ORM1 (11744905_x_at) / RFU CCDC152 (11743942_at) / Fold change /veh CCDC152 (11743942_at) / RFU ECM1 (11717891_a_at) / Fold change /veh ECM1 (11717891_a_at) / RFU IL23R (11748794_a_at) / Fold change /veh IL23R (11748794_a_at) / RFU TNFAIP8L3 (11732012_x_at) / Fold change /veh TNFAIP8L3 (11732012_x_at) / RFU MBOAT4 (11741988_at) / Fold change /veh MBOAT4 (11741988_at) / RFU 11764193_at / Fold change /veh 11764193_at / RFU TMEM53 (11763286_at) / Fold change /veh TMEM53 (11763286_at) / RFU MAGEB2 (11727129_at) / Fold change /veh MAGEB2 (11727129_at) / RFU TMEM200A (11744735_a_at) / Fold change /veh TMEM200A (11744735_a_at) / RFU CCDC152 (11751479_a_at) / Fold change /veh CCDC152 (11751479_a_at) / RFU FAM211A (11726209_a_at) / Fold change /veh FAM211A (11726209_a_at) / RFU RGS16 (11746705_a_at) / Fold change /veh RGS16 (11746705_a_at) / RFU VCAN (11755009_s_at) / Fold change /veh VCAN (11755009_s_at) / RFU RHOB (11743442_s_at) / Fold change /veh RHOB (11743442_s_at) / RFU RGS16 (11720943_a_at) / Fold change /veh RGS16 (11720943_a_at) / RFU RGS16 (11720944_at) / Fold change /veh RGS16 (11720944_at) / RFU, VPS4B / Fold change vs veh, VPS4B / RFU, CREB1 / Fold change vs veh, CREB1 / RFU, DNAJC13 / Fold change vs veh, DNAJC13 / RFU, GNAQ / Fold change vs veh, GNAQ / RFU, CDK5R1 / Fold change vs veh, CDK5R1 / RFU, ZRANB3 / Fold change vs veh, ZRANB3 / RFU, CUL4A / Fold change vs veh, CUL4A / RFU, CCNY / Fold change vs veh, CCNY / RFU, UFL1 / Fold change vs veh, UFL1 / RFU, COG3 / Fold change vs veh, COG3 / RFU, DIAPH2 / Fold change vs veh, DIAPH2 / RFU, SKA2 / Fold change vs veh, SKA2 / RFU, AFF3 / Fold change vs veh, AFF3 / RFU, LMF1 / Fold change vs veh, LMF1 / RFU, IPO11 / Fold change vs veh, IPO11 / RFU, DFFB / Fold change vs veh, DFFB / RFU, FOXP1 / Fold change vs veh, FOXP1 / RFU, CARD8 / Fold change vs veh, CARD8 / RFU, STRN3 / Fold change vs veh, STRN3 / RFU, ADK / Fold change vs veh, ADK / RFU, RASSF2 / Fold change vs veh, RASSF2 / RFU, WIPF1 / Fold change vs veh, WIPF1 / RFU, LARP1B / Fold change vs veh, LARP1B / RFU, RASA1 / Fold change vs veh, RASA1 / RFU, RB1 / Fold change vs veh, RB1 / RFU, PPFIA1 / Fold change vs veh, PPFIA1 / RFU, MAT2A / Fold change vs veh, MAT2A / RFU, CCT5 / Fold change vs veh, CCT5 / RFU, WDR92 / Fold change vs veh, WDR92 / RFU, CUX1 / Fold change vs veh, CUX1 / RFU, TTC7A / Fold change vs veh, TTC7A / RFU, TMEM135 / Fold change vs veh, TMEM135 / RFU, DEPTOR / Fold change vs veh, DEPTOR / RFU, CPM / Fold change vs veh, CPM / RFU, DNAJB6 / Fold change vs veh, DNAJB6 / RFU, CACNA2D3 / Fold change vs veh, CACNA2D3 / RFU, DTX4 / Fold change vs veh, DTX4 / RFU, TFCP2 / Fold change vs veh, TFCP2 / RFU, GMCL1 /// GMCL1P1 / Fold change vs veh, GMCL1 /// GMCL1P1 / RFU, AEBP2 / Fold change vs veh, AEBP2 / RFU, SNHG1 /// SNORD22 /// SNORD25 /// SNORD26 /// SNORD27 /// SNORD28 /// SNORD29 /// SNORD31 / Fold change vs veh, SNHG1 /// SNORD22 /// SNORD25 /// SNORD26 /// SNORD27 /// SNORD28 /// SNORD29 /// SNORD31 / Fold change (Aza/veh), C12orf56 (ProbeSet 11735607_a_at) / Fold change (ACY-1035/veh), C12orf56 (ProbeSet 11735607_a_at) / Fold change (Aza/veh), FGFR1OP (ProbeSet 11751329_s_at) / Fold change (ACY-1035/veh), FGFR1OP (ProbeSet 11751329_s_at) / Fold change (Aza/veh), VPS36 (ProbeSet 11739960_a_at) / Fold change (ACY-1035/veh), VPS36 (ProbeSet 11739960_a_at) / RFU SYPL1 (11715823_x_at) / Fold change /veh SYPL1 (11715823_x_at) / RFU IGFBP7 (11715501_s_at) / Fold change /veh IGFBP7 (11715501_s_at) / RFU REEP3 (11722064_at) / Fold change /veh REEP3 (11722064_at) / RFU IGLL1 (11728026_x_at) / Fold change /veh IGLL1 (11728026_x_at): dose or concentration left out as unconfirmed",
  "conditions": "MV-4-11 cells, 48 hours",
  "data": [
    {"smiles": "Nc1ncn([C@@H]2O[C@H](CO)[C@@H](O)[C@H]2O)c(=O)n1", "note": "[azacitidine]", "values": [
      {"measurement": "Fold change /veh KIR2DL2 /// KIR2DL4 /// KIR2DL5A /// KIR2DL5B /// KIR2DS1 /// KIR2DS2 /// KIR2DS3 /// KIR2DS4 /// KIR3DL3 /// KIR3DL3 /// KIR3DS1 (11738374_at)", "value": 0.92}
    ]}
  ]
}
